Reference: patent publication US4377592A, “Antiarrhythmic activity of cetiedil” (Innothera, priority 1979, dated 1983)
Several values for one entry are separate records, joined by “and”; a condition that tells them apart may be missing. Equal values may be shown once. Read-outs that look alike come from different tables or passages of the source.

Columns and labels:
[1] = tested on: atrio-ventricular conduction; assay: Atrio-ventricular conduction in the anaesthetized dog (Duchene-Marullaz); assay type: in vivo
Excerpt: (§1) The technique of DAWES (modified by ALLIES ET AL.) was used with the isolated guinea-pig atrial, and the technique of DUCHENE-MARULLAZ, J. Pharmacol. Paris, 1970, 1, 539, in the anaesthetized dog. This method is used to study the permeability of atrio-ventricular conduction, and thus more precisely conduction at the level of Tawara's nod.

[2] = tested on: isolated guinea-pig atrial; assay: Stimulated isolated guinea pig atrial (technique of Dawes); assay type: cell-based
Excerpt: as §1

[3] = in vivo; conditions: mouse, iv
[4] = Tolerance of normal healthy adult male subjects to cetiedil given by intravenous infusion; assay type: in vivo, human
[5] = tested on: rat aortic fragments; assay: Contraction of rat aorta fragment induced by potassium depolarisation; assay type: cell-based; conditions: for pD'2: pD'2 = pDx + log (x - 1)
Method: (§2) Fragments of aorta removed from rats are immersed in survival fluid in the presence of carbogene at 37° C. By modifying the ionic equilibrium of the survival medium, it was possible to study the effects of […] on contraction of the aortic fragments induced by depolarisation with potassium or calcium.

[6] = tested on: rat aortic fragments; assay: Competitive antagonism of calcium dose/effect curve of contraction of rat aortic fragment; assay type: cell-based; conditions: competitive inhibition versus calcium
Method: as §2

[7] = tested on: ventricular tachycardia induced by ouabaine; assay: Ouabain induced ventricular tachycardia in the anesthetized guinea-pig; assay type: in vivo; conditions: 5 and 10 mg/kg
Method: This test is used to determine the dose of ouabain administered by slow infusion necessary to obtain the appearance of ventricular extrasystoles. The animal used was the guinea pig and the substances were administered intravenously.

[8] = cited from earlier work
[9] = tested on: rabbit cornea oculo-palpebral reflex; assay type: in vivo; conditions: for TOTAL DEGREE OF ANAESTHESIA FOR 60 minutes: rabbit cornea, total 13 no anaesthesia, 1300 complete
Excerpt: For the purpose of this study, the classical technique of REGNIER J., Thesis Doct. […] This consists of repeating touching of the rabbit cornea until an oculo-palpebral reflex is obtained. It should be noted that […], in common with the reference substances, was used in the form of the HCl Salt.

[10] = tested on: chloroform-induced ventricular fibrillation; assay: Chloroform-induced ventricular fibrillation in the mouse; assay type: in vivo
Excerpt: In this technique first described by LAWSON, J. W. in J. Pharm. Exp. Ther. 1968, 160, 22 and Vargaftig, B. B. et al in Eur. J. Pharmacol. 1969, 6, 49, the inhalation of chloroform vapour produced in the mouse apnea followed by ventricular fibrillation.
The mechanism of this technique remains unknown.

[11] = tested on: ventricular tachycardia induced by Ouabain; assay: Ouabain induced ventricular tachycardia in the dog (Lucchesi and Hardman); assay type: in vivo; conditions: at the average effective dose
Excerpt: The method used is that of […] and HARDMAN, J. Pharmacol. Exp. Ther. 1961, 132, 372-381. Ventricular tachycardia was obtained by the sequential administration of Ouabain until a permanent ventricular tachycardia developed. Following observation of the effect of the substance, the reappearance of this ventricular tachycardia following the injection of insulin was confirmed, thereby showing the persistence within the heart of a toxic dose of Ouabain (Average dose of Ouabain 71.25 γ kg IV).

[12] = tested on: polymorphous arrhythmias induced by adrenaline petrol-ether; assay: Polymorphous arrhythmias induced in the anaesthetised guinea-pig by adrenaline and petrol ether; assay type: in vivo
Excerpt: Adrenaline in high dosage is a powerful arrhythmogenic stimulus to a myocardia induced by petrol ether, as recognized in the guinea-pig by LE MARECHAL J., Thesis Doct.

[13] = tested on: ventricular fibrillation induced by CaCl2; assay: Calcium (CaCl2) induced ventricular fibrillation in the anaesthetized rat, Malinow's technique; assay type: in vivo
Method: According to MALINOW, M. R., et coll. Acta. Physiol Latino. Americ.
Using the anaesthetized rat, 200 mg/kg of CaCl2 was injected two minutes after the substances to be tested. The ECG was recorded continuously in lead II.

O=C(OCCN1CCCCCC1)C(c1ccsc1)C1CCCCC1 (stereo not drawn) [citrate monohydrate of α-cyclohexyl-3-thiopheneaceticacid 2-(hexahydro-1H-azepin-1-yl)ethyl ester]
effect on atrio-ventricular conduction after denervation ([1]; anaesthetized dog, denervated): not altered by denervation | effect on atrio-ventricular conduction ([1]; anaesthetized dog, intact): significant depression which was proportional to the dose injected | chronotropic effect ([1]; dog): absence of any significant negative chronotropic effects | effects on contractile force of the myocardia ([1]; dog, doses of 2.5 and 5 mg/kg): slight | % DECREASE SPONTANEOUS RATE ([2]; concentration 10^-5): 26% | % DECREASE m.f.s. (maximum frequency followed by the atrial) ([2]; concentration 10^-5): 27% | % DECREASE SPONTANEOUS RATE ([2]; concentration 10^-6): 6% | % DECREASE m.f.s. (maximum frequency followed by the atrial) ([2]; concentration 10^-6): 14% | % DECREASE SPONTANEOUS RATE ([2]; concentration 10^-7): 9% | % DECREASE m.f.s. (maximum frequency followed by the atrial) ([2]; concentration 10^-7): 6% | negative bathmotropic effect ([2]; concentration of 1.10^-6): identical to that of Quinidine and less than that of Propranolol | LD50 [3]: 57 mg/kg | overall safety conclusion ([4]; 0.359 mg/kg infused 9 times over a 10 day-period): safe drug | abnormalities in electrocardiograms, blood chemistry, hematologic profiles, urine analyses ([4]; 10 volunteers, 0.359 mg/kg, 9 infusions over 10 days): no significant abnormalities | subjects with doubtful elevation in SGOT value ([4]; after completion of study-period, of 10): 2 subjects | average duration of side effects after completion of infusion ([4]; after the first infusion): 72.9 min | subjects complaining of side effects ([4]; after the first infusion): 7 subjects | duration of side effects ([4]; after the ninth infusion): 15 min | subjects complaining of side effects ([4]; after the ninth infusion): 3 subjects | K+ level ([4]; another subject, after completing the study): slight reduction | Ca++ level ([4]; one subject, after completing the study): minimal elevation | systemic blood pressure ([4]; one to four hours after infusion): slightly decreased | Pulse rate ([4]; usually one hour after the infusion): slightly reduced | IC50 ([5]; in the presence of 1.26 mM of calcium, read-out: concentration reducing by half the force of contraction): 6 µM | pD'2 (mean) ([5]; mean ± SD, potassium depolarisation): 5.23 ± 0.05 and 5.23 | x ([5]; single experiment, cetiedil concentration 1 (pDx 6.00)): 1.16 | pD'2 ([5]; single experiment, cetiedil concentration 1): 5.20 | x ([5]; single experiments, cetiedil concentration 5 (pDx 5.30)): 1.50 and 2.17 | pD'2 ([5]; single experiments, cetiedil concentration 5): 5.00 and 5.37 | x ([5]; single experiments, cetiedil concentration 10 (pDx 5.00)): 2.78 and 3.24 and 2.70 | pD'2 ([5]; single experiments, cetiedil concentration 10): 5.25 and 5.35 and 5.23 | pA2 [6]: 6.27 | threshold before the development of cardiac disturbances [7]: significant increase | share of circulating radio-activity due to a metabolite ([8]; 5 minutes after intravenous injection of 0.25 mg): half | digestive absorbtion ([8]; C14): excellent | Rectal absorption ([8]; in vivo): relatively low, and above all, very slow | Biliary excretion ([8]; individual with a biliary drain): no more than 11% | terminal half-life of plasma radio-activity ([8]; man, 0.25 mg intravenous, C14): approximately five | terminal half-life of urinary excretion ([8]; man, C14): ~26 h | radio-activity excreted in the urines ([8]; man, intact biliary circulation): approximately 65% | plasma radioactivity following oral administration ([8]; man, versus intravenous injection): markedly higher than after intravenous injection | urinary excretion ([8]; patient who had undergone surgery): 42% | radio-active transformation substance in urine ([8]; urine passed 1 hour following the injection): 100% | local anaesthetic effects relative to cocaine ([9]; rabbit): twice as great as those of cocaine | TOTAL DEGREE OF ANAESTHESIA FOR 60 minutes ([9]; 0.25 g./100, HCl salt): 393.2 | TOTAL DEGREE OF ANAESTHESIA FOR 60 minutes ([9]; 0.50 g./100, HCl salt): 798.8 | duration of complete local anaesthesia ([9]; rabbit, local instillation, concentration of 0.5%): 15 min | activity relative to propranolol ([10]; chloroform induced fibrillation in the mouse): ten times less powerful than propranolol | ED50 ([10]; mouse, chloroform vapour inhalation, IP, read-out: ED50): ~50 mg/kg | duration of return to sinus rhythm [11]: more than 30 min | ED50 ([12]; Cavia porcellus, ip, guinea-pig, urethane 1.2 g/kg IP, substance 5 minutes before intoxication, read-out: ED50 (dose decreasing by half the duration of the disturbances)): ~1.2 mg/kg | index I = LD50 IV/ED50 ([12]; Table 1, adrenaline petrol-ether, guinea-pig ED50, mouse LD50): 47.50 | activity relative to the reference β-blocker ([12]; guinea pig, adrenaline and petrol-ether): three times less active than the reference β-blocker | index LD50/AD50 (ventricular fibrillation) ([13]; Table 2): 18,69 | index LD50/AD50 (death) ([13]; Table 3): 16.29 | AD 50 protection against ventricular fibrillation ([13]; anaesthetized rat, CaCl2 200 mg/kg IV two minutes after substance): 3,50 mg/kg/IV | ED50 ([13]; anaesthetized rat, CaCl2 200 mg/kg IV two minutes after substance, read-out: AD 50 protection against ventricular fibrillation): 3.5 mg/kg
